Measurements reported in BindingDB's records for doi:10.7270/Q2DF6PMF (Nmmlsc, 2007).

Target: T1, N-formyl peptide receptor 2 (Homo sapiens, UniProt P25090)
T1 sequence (P25090 whole entry): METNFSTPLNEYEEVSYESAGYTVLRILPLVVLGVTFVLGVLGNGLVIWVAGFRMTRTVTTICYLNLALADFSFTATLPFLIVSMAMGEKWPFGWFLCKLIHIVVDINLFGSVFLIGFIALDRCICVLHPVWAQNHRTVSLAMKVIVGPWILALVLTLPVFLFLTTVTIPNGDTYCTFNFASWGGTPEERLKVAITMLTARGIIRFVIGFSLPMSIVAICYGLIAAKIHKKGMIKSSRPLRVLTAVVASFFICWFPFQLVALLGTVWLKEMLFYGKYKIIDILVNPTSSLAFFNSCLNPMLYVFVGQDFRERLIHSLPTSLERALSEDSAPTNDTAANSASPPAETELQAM
Test: concentration-dependent FPRL1 ligand displacement – cell-based, FPR counter-screen, fluorescent ligand, dose response (AID 520)
Details: not given

Row | IC50 | Ki | SMILES
1 | > 66.7 µM | > 40.3 µM | COCCCN1C(=O)C(=O)C(C(=O)c2ccco2)C1c1cccc(Br)c1 (centres undefined) [2-(3-bromophenyl)-3-(furan-2-carbonyl)-4-hydroxy-1-(3-methoxypropyl)-2H-pyrrol-5-one]
2 | > 66.7 µM | > 40.3 µM | O=C1C(=O)N(c2ncccn2)C(c2cccc(Cl)c2)C1C(=O)c1ccco1 (centres undefined) [2-(3-chlorophenyl)-3-(furan-2-carbonyl)-4-hydroxy-1-pyrimidin-2-yl-2H-pyrrol-5-one]
3 | > 66.7 µM | > 40.3 µM | CCOc1cc(C2C(C(=O)c3ccco3)C(=O)C(=O)N2CCc2ccccc2)ccc1O (centres undefined) [2-(3-ethoxy-4-hydroxyphenyl)-3-(furan-2-carbonyl)-4-hydroxy-1-(2-phenylethyl)-2H-pyrrol-5-one]
4 | > 66.7 µM | > 40.3 µM | CCOc1cc(C2C(C(=O)c3ccc(C)o3)C(=O)C(=O)N2CCc2ccccc2)ccc1O (centres undefined) [2-(3-ethoxy-4-hydroxyphenyl)-4-hydroxy-3-(5-methylfuran-2-carbonyl)-1-(2-phenylethyl)-2H-pyrrol-5-one]
5 | > 66.7 µM | > 40.3 µM | COc1cc(C2C(C(=O)c3ccc(C)o3)C(=O)C(=O)N2CCc2ccccc2)ccc1O (centres undefined) [2-(3-methoxy-4-oxidanyl-phenyl)-3-(5-methylfuran-2-yl)carbonyl-4-oxidanyl-1-(2-phenylethyl)-2H-pyrrol-5-one]
6 | > 66.7 µM | > 40.3 µM | COc1cc(C2C(C(=O)c3ccc(C)o3)C(=O)C(=O)N2Cc2cccnc2)ccc1O (centres undefined) [2-(3-methoxy-4-oxidanyl-phenyl)-3-(5-methylfuran-2-yl)carbonyl-4-oxidanyl-1-(pyridin-3-ylmethyl)-2H-pyrrol-5-one]
7 | 12.1 µM | – | COc1ccc(-c2cc(C(F)(F)F)nc(N3CCN(Cc4ccccc4)CC3)n2)cc1OC [2-(4-benzylpiperazin-1-yl)-4-(3,4-dimethoxyphenyl)-6-(trifluoromethyl)pyrimidine]
8 | > 66.7 µM | > 40.3 µM | COCCCN1C(=O)C(=O)C(C(=O)c2ccco2)C1c1ccc(Br)cc1 (centres undefined) [2-(4-bromophenyl)-3-(furan-2-carbonyl)-4-hydroxy-1-(3-methoxypropyl)-2H-pyrrol-5-one]
9 | > 66.7 µM | > 40.3 µM | Cc1nc(C)c(C(=O)C2C(=O)C(=O)N(CCCn3ccnc3)C2c2ccc(Cl)cc2)s1 (centres undefined) [2-(4-chlorophenyl)-3-(2,4-dimethyl-1,3-thiazole-5-carbonyl)-4-hydroxy-1-(3-imidazol-1-ylpropyl)-2H-pyrrol-5-one]
10 | > 66.7 µM | > 40.3 µM | O=C1C(=O)N(c2ncccn2)C(c2ccc(Cl)cc2)C1C(=O)c1ccco1 (centres undefined) [2-(4-chlorophenyl)-3-(furan-2-carbonyl)-4-hydroxy-1-pyrimidin-2-yl-2H-pyrrol-5-one]
11 | > 66.7 µM | > 40.3 µM | CCOc1ccc(C2C(C(=O)c3cccs3)C(=O)C(=O)N2CCCn2ccnc2)cc1 (centres undefined) [2-(4-ethoxyphenyl)-1-(3-imidazol-1-ylpropyl)-4-oxidanyl-3-thiophen-2-ylcarbonyl-2H-pyrrol-5-one]
12 | > 66.7 µM | > 40.3 µM | CCOc1ccc(C2C(C(=O)c3ccco3)C(=O)C(=O)N2CCCn2ccnc2)cc1 (centres undefined) [2-(4-ethoxyphenyl)-3-(furan-2-carbonyl)-4-hydroxy-1-(3-imidazol-1-ylpropyl)-2H-pyrrol-5-one]
13 | > 66.7 µM | > 40.3 µM | CCOc1ccc(C2C(C(=O)c3ccco3)C(=O)C(=O)N2Cc2cccnc2)cc1 (centres undefined) [2-(4-ethoxyphenyl)-3-(furan-2-carbonyl)-4-hydroxy-1-(pyridin-3-ylmethyl)-2H-pyrrol-5-one]
14 | > 66.7 µM | – | COC(=O)COc1ccc2c(=O)c(Oc3ccccc3)c(C)oc2c1 [2-(4-keto-2-methyl-3-phenoxy-chromen-7-yl)oxyacetic acid methyl ester]
15 | > 66.7 µM | – | COc1ccc2c(=O)c(N3C(=O)c4ccccc4C3=O)c(C)oc2c1 [2-(4-keto-7-methoxy-2-methyl-chromen-3-yl)isoindoline-1,3-quinone]
16 | > 66.7 µM | – | COc1ccc(CC(=O)Nc2ccc(-c3nnc(-c4ccc(C)cc4)o3)cc2)cc1 [2-(4-methoxyphenyl)-N-[4-[5-(4-methylphenyl)-1,3,4-oxadiazol-2-yl]phenyl]acetamide]
17 | > 66.7 µM | – | O=C(O)CC1Oc2ccc(Cl)cc2NC1=O (centres undefined) [2-(6-chloranyl-3-oxidanylidene-4H-1,4-benzoxazin-2-yl)ethanoic acid]
18 | > 66.7 µM | – | Cc1cc(SCC(N)=O)nc(SCC(=O)c2ccccc2)n1 [2-(6-methyl-2-phenacylsulfanylpyrimidin-4-yl)sulfanylacetamide]
19 | > 66.7 µM | – | CC(C)CN(CC(C)C)C(=O)CS(=O)(=O)Cc1ccccc1 [2-(benzylsulfonyl)-N,N-diisobutylacetamide]
20 | > 66.7 µM | – | Cc1sc(NC(=O)C2CCCCC2C(=O)O)c(C(N)=O)c1-c1ccc(C(C)(C)C)cc1 (centres undefined) [2-({[3-(aminocarbonyl)-4-(4-tert-butylphenyl)-5-methyl-2-thienyl]amino}carbonyl)cyclohexanecarboxylic acid]
21 | > 66.7 µM | – | CCc1ccccc1NC(=O)C(C#N)Cc1cccnc1 (centres undefined) [2-Cyano-N-(2-ethyl-phenyl)-2-pyridin-3-ylmethyl-acetamide]
22 | > 66.7 µM | – | Cc1nn(-c2nc3ccccc3s2)c(C)c1Oc1ccccc1O [2-[1-(1,3-benzothiazol-2-yl)-3,5-dimethyl-pyrazol-4-yl]oxyphenol]
23 | > 66.7 µM | – | CC1CCN(S(=O)(=O)c2ccc3c(c2)oc(=O)n3CC(=O)NCc2ccc3c(c2)OCO3)CC1 [2-[2-keto-6-(4-methylpiperidino)sulfonyl-1,3-benzoxazol-3-yl]-N-piperonyl-acetamide]
24 | > 66.7 µM | – | CCc1nnc(NC(=O)CSc2nnc(-c3cc4ccccc4cc3O)n2CC)s1 [2-[4-Ethyl-5-(3-hydroxy-naphthalen-2-yl)-4H-[1,2,4]triazol-3-ylsulfanyl]-N-(5-ethyl-[1,3,4]thiadiazol-2-yl)-acetamide]
25 | > 66.7 µM | > 40.3 µM | COC(=O)Cc1n[nH]c2c1C(C1C=CCCC1)C(C#N)C(=N)O2 (centres undefined) [2-[6-amino-5-cyano-4-(1-cyclohex-2-enyl)-2,4-dihydropyrano[2,3-c]pyrazol-3-yl]acetic acid methyl ester]
26 | > 66.7 µM | – | O=C(O)C1CCCCC1C(=O)Nc1ccccc1Cl (centres undefined) [2-[(2-chloroanilino)-oxomethyl]-1-cyclohexanecarboxylic acid]
27 | > 66.7 µM | – | CCc1nn2c(=O)cc(CSc3nc4sc5c(c4c(=O)n3C)CCCC5)nc2s1 [2-[(2-ethyl-5-keto-[1,3,4]thiadiazolo[3,2-a]pyrimidin-7-yl)methylthio]-3-methyl-5,6,7,8-tetrahydrobenzothiopheno[2,3-d]pyrimidin-4-one]
28 | > 66.7 µM | – | Cc1ccc(F)c(NC(=O)C2CCCCC2C(=O)O)c1 (centres undefined) [2-[(2-fluoranyl-5-methyl-phenyl)carbamoyl]cyclohexane-1-carboxylic acid]
29 | > 66.7 µM | – | COc1ccc(C)cc1NC(=O)C1CCCCC1C(=O)O (centres undefined) [2-[(2-methoxy-5-methyl-phenyl)carbamoyl]cyclohexane-1-carboxylic acid]
30 | > 66.7 µM | – | N#Cc1c(C(F)(F)F)cc(-c2ccccc2)nc1SCc1nc(N)nc(N2CCOCC2)n1 [2-[(4-amino-6-morpholin-4-yl-1,3,5-triazin-2-yl)methylsulfanyl]-6-phenyl-4-(trifluoromethyl)pyridine-3-carbonitrile]

Same assay, conditions: inactive by the depositor's call

Row | IC50 | SMILES
31 | 18.2 µM | CNc1nn(-c2cccc(Cl)c2)nc1N [2-(3-chlorophenyl)-4-N-methyltriazole-4,5-diamine]
